Here are results for 2 compounds from publication PMC3479105, “K-134, a Phosphodiesterase 3 Inhibitor, Prevents Brain Damage by Inhibiting Thrombus Formation in a Rat Cerebral Infarction Model” (PLoS ONE, 2012).

Read-outs that look alike come from different tables or passages of the source. Some results are limits rather than exact numbers.

What is called IC50 is the point on the concentration scale where inhibition reaches its midpoint. A word on the inhibition: it is the relative decrease from the control value, in per cent. As a reminder, the Tmax is the time at which the peak concentration occurs. As usually defined, the Cmax is the highest concentration seen after dosing. A word on the half-life: it is the time in which the quantity being followed falls by half.

Details of data set [1]: method as in PMID 22269153. Conditions: cited from earlier work.
The test system of another data set is bleeding time. The data set can be described thus: Tail bleeding time in mice. The data set is classed as in vivo, mouse. Conditions: single oral 30 mg/kg, 10 min before test, control 110±5 s, not significant. As for the experimental part: K-134 and warfarin (Sigma Aldrich Co., MO, USA) were suspended and dissolved in 1% HPMC, respectively, and orally administered to ICR mice at 10 min or 24 h before testing of bleeding, respectively. Each mouse was placed in a restrainer, which exposes the tail. A 27G disposable needle (Terumo Co., Tokyo, Japan) was inserted about 6 mm into a tail vein 2 cm from the tip of the tail. Immediately after the operation, sheets of filter paper were placed under the injury site every 15 sec to absorb the blood, and the time point at which no blood was observed on the filter paper was regarded as the bleeding time.

A short description of data set [2]: Plasma concentration of K-134 in mice. In kind it is in vivo, mouse. The settings on record: male ICR mice, 10 min after administration, n = 6; for concentration at 10 min: mouse, plasma. On the procedure: We also measured plasma concentration of K-134 at 10 min after a single oral administration of K-134 to male ICR mice (Japan SLC Inc., 5 weeks old).
The test system of data set [3] is platelet aggregation ex vivo. Also noted: method as in PMID 22269153. Conditions: rats, single administration 30 mg/kg; cited from earlier work.
Data set [4] has as its system mouse platelet aggregation. The data set can be described thus: Mouse platelet aggregation in vitro (PRP, aggregometer). The data set is classed as cell-based. On the procedure:
Platelet-rich plasma (PRP) was prepared by centrifugation (900 rpm, 15 min, at room temperature) of blood (05PR-22 centrifuge with a 03 rotor; Hitachi, Ltd., Tokyo, Japan), and the platelet count was adjusted to 5×10^5/µL with platelet-poor plasma prepared by centrifugation (3000 rpm, 10 min, at room temperature). PRP was incubated with antiplatelet agents at 37°C for 3 min and stimulated with collagen (final concentration, 15 µg/mL; MC Medical Inc., Tokyo, Japan) or adenosine diphosphate (ADP) (final concentration, 7.5 µM; MC Medical Inc.) (n = 5). Platelet aggregation was quantified by measuring the area under the curve (AUC) during the 5-min period after addition of trigger using a light transmittance aggregometer (PAM-8C; Mebanix Co., Ltd., Tokyo, Japan).

The subject of data set [5] is platelet aggregation ex vivo. The data set can be described thus: Platelet aggregation ex vivo in rats after oral dosing. Conditions: Rattus norvegicus, 300 mg/kg oral, 3 h after administration. As for the experimental part:
Cilostazol was orally administered to rats under non-fasting conditions in a single dose. […] Platelet-rich plasma (PRP) was prepared by centrifugation (450 × g, 8 min, 25°C) of blood. PRP was stimulated with adenosine diphosphate (ADP) (final concentration = 4 µM; MC Medical Inc., Tokyo, Japan) or collagen (final concentration = 5 µg/mL; MC Medical Inc.). Platelet aggregation was quantified by measuring the area under the curve (AUC) during the 5 or 7 min after addition of ADP or collagen, respectively, using a light transmittance aggregometer (Hema Tracer 313M; MC Medical Inc.).

The nature of data set [6]: Pharmacokinetics of cilostazol and its active metabolites in rats. The data set is classed as in vivo, rat. Conditions: single oral cilostazol 300 mg/kg, non-fasting male SD rats, n = 3, parent and metabolites. As for the experimental part:
Pharmacokinetic variables (Cmax, AUC, Tmax and T1/2) were calculated from the plasma drug concentration-time curve. Cilostazol was orally administered to rats under non-fasting conditions at a single dose of 300 mg/kg to determine the concentration-time profile in serum (n = 3). Values are means (± SEM). […]

On the set-up of data set [7]: method as in PMID 10702882. Conditions: human healthy male, single dose 100 mg of cilostazol, cited from earlier work.

Consider `O=C(NCCCOc1ccc2[nH]c(=O)ccc2c1)N(C1CC1)[C@@H]1CCCC[C@H]1O` [K-134], for which the “time to plasma peak levels” value in data set [1] (oral administration, conscious male SD rats under fed conditions) was 1 to 2 h. Also, the “half-life (T1/2)” value in data set [1] (rats, 10 mg/kg) was “about 2 h”. The bleeding time with bleeding time is 106 ± 5 s. The “Plasma concentration of K-134” value in data set [2] (30 mg/kg single oral, 30 mg/kg) was determined as 13600 ± 2300 nM. Besides, the concentration at 10 min in data set [2] (1 mg/kg single oral) came out at 400 nM; in data set [2] (3 mg/kg single oral) it was 1100 ± 200 nM; in data set [2] (10 mg/kg single oral), 4300 ± 600 nM; in data set [2] (30 mg/kg single oral) it was 13600 ± 2300 nM. In addition, the “inhibition of ADP-induced platelet aggregation ex vivo” value in data set [3] is reported as “about 55%”. Also, the “inhibition of collagen-induced platelet aggregation ex vivo” value in data set [3] is listed as about 79%. The IC50 in data set [4] (ADP, read-out: IC50, mouse platelet aggregation induced by ADP) was determined as 6.7 µM; in data set [4] (collagen, read-out: IC50, mouse platelet aggregation induced by collagen), 5.5 µM.
As to `O=C1CCc2cc(OCCCCc3nnnn3C3CCCCC3)ccc2N1` [cilostazol], the inhibition at 300 mg/kg amounted to 27% in data set [5] (read-out: inhibition of ADP-induced platelet aggregation ex vivo) and 50% in data set [5] (read-out: inhibition of collagen-induced platelet aggregation ex vivo). Also, the Tmax in data set [6] (male, SD, rat, plasma, po, 300 mg/kg, read-out: Tmax) is over 3 h; in data set [6], 5.8 h. Moreover, the Cmax in data set [6] (rat, plasma) was 2400 nM; in data set [7] (converted from µg/L, read-out: Cmax) it was 1690 nM; in data set [7] it was “about 625 µg/L”. Moreover, the half-life in data set [6] (rat, plasma) is 5.4 h. Besides, the AUC(0-t) in data set [6] (rat, plasma, read-out: AUC0-24h) was 30.1 µM·h. The “AUC0–72 h” value is recorded as 21.89 µM·h in data set [7] (converted from µg/L·h) and “about 8087 µg/L·h” in data set [7].
